Results published in the supplement of paper PMC11821682.

Key:
Danio rerio embryo [1] = test: BMC10 mortality 24-120 hpf; higher = less toxic
Protocol: (§1)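 ZBEscreen: dechorionated Tropical 5D zebrafish embryos were exposed from 4 hpf in 96-well plates (1% DMSO, 28 °C). All compounds were first tested at 100 µM; hits were retested at 0.005-100 µM. Morphology and mortality were scored at 120 hpf and fitted as BMC10 (3-parameter log-logistic, extra risk). The embryonic photomotor response at 24 hpf and the larval photomotor response at 120 hpf are given as lowest effect levels (K-S test, p<0.01). NA = not significant up to 100 µM; NT = not tested.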

Danio rerio embryo [2] = test: LEL larval photomotor response dark phase 120 hpf
Protocol: as §1

HL-60 = test: Cell Health Index (toxicity pseudo-probability over dose series) (index 0-1); higher = more cytotoxic / cell stress;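 also: HL-60 cells exposed 4 h at 37 °C to ten threefold dilutions spanning 5 nM to 100 µM, multiparametric flow cytometry features scored by machine-learning classification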
Danio rerio embryo [3] = test: LEL embryonic photomotor response 24 hpf
Protocol: as §1

Danio rerio embryo [4] = test: BMC10 any morphological effect or mortality at 120 hpf; higher = less toxic

Compound	BMC10 mortality 24-120 hpf (Danio rerio embryo [1]) [µM]	LEL larval photomotor response dark phase 120 hpf (Danio rerio embryo [2]) [µM]	Cell Health Index (HL-60)	LEL embryonic photomotor response 24 hpf (Danio rerio embryo [3]) [µM]	BMC10 any morphological effect or mortality (Danio rerio embryo [4]) [µM]
Cc1sc2c(c1C)C(c1ccc(Cl)cc1)=N[C@@H](CC(=O)OC(C)(C)C)c1nnc(C)n1-2 [(+)-JQ1]	1.15	> 100	0.87	3.7	1.13
CC(=O)O[C@]1(C(C)=O)CC[C@H]2[C@@H]3C=C(C)C4=CC(=O)CC[C@]4(C)[C@H]3CC[C@@]21C [Megestryl acetate]	9.53	> 100	0.449	11.1	4.08
C[C@H]1O[C@@H](O[C@H]2CC[C@@]3(C)[C@@H](CC[C@]4(C)[C@@H]3C=C[C@]35OC[C@@]6(CCC(C)(C)C[C@H]63)[C@@H](O)C[C@]54C)[C@]2(C)CO)[C@H](O)[C@@H](O[C@@H]2O[C@H](CO)[C@@H](O)[C@H](O)[C@H]2O)[C@H]1O [Saikosaponin A]	1.46	> 100	0.959	> 100	> 100
COc1ccc(C(=O)O[C@H]2[C@H](O[C@@H]3[C@@H](OC(C)=O)[C@H](O[C@H]4C[C@H]5[C@@H]6CC=C7C[C@@H](O)CC[C@]7(C)[C@H]6CC[C@]5(C)[C@@]4(O)[C@H](C)C(=O)CCC(C)C)OC[C@@H]3O)OC[C@@H](O)[C@@H]2O)cc1 [OSW-1]	0.03	0.14	0.822	> 100	0.03
CC(=O)c1c(O)c(C)c(O)c2c1OC1=CC(=O)C(C(C)=O)C(=O)C12C (stereo not given) [Usnic acid]	1.77	> 100	0.406	33.3	1.01
CCCCCCCCCCCCCCCC[n+]1ccn(Cc2ccccc2)c1C.[I-] [NH125 parent]	8.53	> 100	0.949	33.3	7.19
CCCCCCC(=O)CCCCCC/C=C/C[C@@H](O)[C@H](O)[C@@](N)(CO)C(=O)O [Myriocin]	1.46	> 100	0.324	> 100	1.03
C=C(C)[C@@H]1CC[C@]2(C(=O)O)CC[C@]3(C)[C@H](CC[C@@H]4[C@@]5(C)CC[C@H](OC(=O)CC(C)(C)C(=O)O)C(C)(C)[C@@H]5CC[C@]43C)[C@@H]12 [Bevirimat]	3.82	> 100	0.321	11.1	1.29
Cc1cc(CCCOc2c(C)cc(-c3noc(C(F)(F)F)n3)cc2C)on1 [Pleconaril]	6.8	> 100	0.48	0.41	1.15
COc1oc(=O)c2cc(N)ccc2c1Cl [JCP251]	71.8	11.1	0.306	100	42.2
CCOC(=O)c1ccc(OCCC2CCN(c3ccc(C)nn3)CC2)cc1 [Pirodavir]	1.43	> 100	0.528	3.7	2.02
Cl.Cl.OCCOCCN1CCN(Cc2cccc(Oc3ccccc3)c2)CC1	43.1	33.3	0.385	33.3	36.5
O=C(NCCO)c1cccc(-c2cc(Nc3ccc(OC(F)(F)F)cc3)ncn2)c1 [GNF-5]	36.2	33.3	0.81	> 100	28.6
CC(=O)Oc1ccccc1C(=O)Nc1ncc([N+](=O)[O-])s1 [Nitazoxanide]	45.9	> 100	0.723	> 100	44.9
Cc1ccc2c(c1)c1c3n2CCNC3CCC1 (stereo not given) [Pirlindole]	12	> 100	0.298	33.3	5.42
CN1CCN(C(c2ccccc2)c2ccc(Cl)cc2)CC1.Cl (stereo not given) [Chlorcyclizine]	15.9	> 100	0.478	11.1	8.84
COC(=O)c1cc(OC)c2c(c1-c1c(CO)cc(OC)c3c1OCO3)OCO2 [Bicyclol]	10.7	> 100	0.207	0.046	4.07
CC[C@H](C)[C@H]1O[C@]2(CC[C@@H]1C)C[C@@H]1C[C@@H](C/C=C(\C)[C@@H](O[C@H]3C[C@H](OC)[C@@H](O[C@H]4C[C@H](OC)[C@@H](O)[C@H](C)O4)[C@H](C)O3)[C@@H](C)/C=C/C=C3\CO[C@@H]4[C@H](O)C(C)=C[C@@H](C(=O)O1)[C@]34O)O2 [Ivermectin B1a]	4.04	0.41	0.687	1.23	0.156
CCCCCCCC/C=C\CCCCCCCCCCCCCC(=O)O [Nervonic acid]	31	> 100	0.175	> 100	30.9
COc1cccc2c1C(=O)c1c(O)c3c(c(O)c1C2=O)C[C@@](O)(C(=O)CO)C[C@@H]3O[C@H]1C[C@H](N)[C@H](O)[C@H](C)O1.Cl [Doxorubicin]	7.71	> 100	0.852	11.1	3.18
COc1cc(/C=C\C(=O)CC(=O)/C=C\c2ccc(O)c(OC)c2)ccc1O [Curcumin]	40	> 100	0.401	> 100	30.8
O=c1cc(-c2ccccc2)oc2cc(O)cc(O)c12 [Chrysin]	28.3	11.1	0.435	33.3	28.6
C[C@H]1[C@H](OC(=O)CCC(=O)O)O[C@@H]2O[C@@]3(C)CC[C@H]4[C@H](C)CC[C@@H]1[C@@]24OO3 [Artesunate]	9.08	> 100	0.146	> 100	7.91
O=C1C=CC2=C(C(OC/C=C(C)/C)=C(OC=C3)C3=C2)O1 [Imperatorin]	10.8	> 100	0.307	3.7	2.05
O=C(Nc1ncc([N+](=O)[O-])s1)c1ccccc1O [Tizoxanide]	44.2	> 100	0.736	> 100	29.5
CC(C)c1cnn2c(NCc3ccccc3-n3cccn3)nc(OC3CCCNC3)nc12 (stereo not given) [LDC-4297]	32.8	> 100	0.847	33.3	15.3

Compound	BMC10 mortality 24-120 hpf (Danio rerio embryo [1]) [µM]	LEL larval photomotor response dark phase 120 hpf (Danio rerio embryo [2]) [µM]	Cell Health Index (HL-60)	LEL embryonic photomotor response 24 hpf (Danio rerio embryo [3]) [µM]	BMC10 any morphological effect or mortality (Danio rerio embryo [4]) [µM]
COc1ccc2cc1Oc1ccc(cc1)C[C@H]1c3cc(c(OC)cc3CCN1C)Oc1c(O)c(OC)cc3c1[C@H](C2)N(C)CC3 [Fangchinoline]	46.2	> 100	0.884	> 100	6.15
CN1CC[C@H](c2c(O)cc(O)c3c(=O)cc(-c4ccccc4Cl)oc23)[C@H](O)C1.Cl [Flavopiridol]	1.71	> 100	0.49	3.7	1.2
O=c1cc(-c2cccc3c2Sc2ccccc2S3)oc(N2CCOCC2)c1	9.46	> 100	0.663	11.1	5.74
COc1ccc2c(c1)CC[C@@H]1[C@@H]2CC[C@]2(C)[C@@H](NCCCCCCN3C(=O)C=CC3=O)CC[C@@H]12	0.101	> 100	0.348	11.1	0.134
C/C=C(/C)C(=O)OC(C)(C)[C@@H]1Cc2c(ccc3ccc(=O)oc23)O1 [Columbianadin]	4.89	> 100	0.399	3.7	4.14
CC(C)C(=O)SCCCCCCC(=O)Nc1nc(-c2ccccc2)cs1 [NCH-51]	0.624	> 100	0.268	0.41	0.188
O=C(Nc1cc(C(F)(F)F)ccc1N1CCCCC1)c1ccncc1 [SRPIN340]	10.3	> 100	0.799	33.3	0.68
COc1c(C)c2c(c(O)c1C/C=C(\C)CCC(=O)O)C(=O)OC2 [Mycophenolic acid]	1.93	> 100	0.204	11.1	1.23
CN1CCN(CCOc2cc(OC3CCOCC3)c3c(Nc4c(Cl)ccc5c4OCO5)ncnc3c2)CC1 [Saracatinib]	45.7	> 100	0.695	100	15.5
NC(=O)c1cccc(-c2cc(Nc3ccc(OC(F)(F)F)cc3)ncn2)c1 [GNF-2]	4.78	> 100	0.869	11.1	3.7
O[C@H]1CC[C@H](Nc2nc(-c3ccccc3)nc3[nH]ccc23)CC1 [Derenofylline]	36.8	> 100	0.201	100	22.7
COc1ccc2cc1Oc1ccc(cc1)C[C@H]1c3c(cc4c(c3Oc3cc5c(cc3OC)CCN(C)[C@@H]5C2)OCO4)CCN1C [Cepharanthine]	10.9	0.41	0.911	> 100	10.5
COC(=O)C[C@](O)(CCC(C)(C)O)C(=O)O[C@@H]1C(OC)=C[C@]23CCCN2CCc2cc4c(cc2[C@H]13)OCO4 [Harringtonine]	26.6	> 100	0.376	33.3	10.8
CN1Cc2c(ccc3c2OCO3)[C@@H]2[C@H]1c1cc3c(cc1C[C@@H]2O)OCO3 [Chelidonine]	0.079	> 100	0.277	> 100	0.064
O=C1Nc2ccc(Cl)cc2[C@@](C#CC2CC2)(C(F)(F)F)O1 [Efavirenz]	12	> 100	0.874	3.7	1.3
CN(C)CCCNC(=O)c1ccc(-c2cc(O)c3ncccc3c2)cc1 [ML-324]	15.9	> 100	0.537	11.1	15.9
Cc1cnc(-c2ccccc2C(C)C)nc1NCc1ccc(-n2ccnn2)cc1 [ML-323]	10.5	> 100	0.577	11.1	9.11
C[C@H]1[C@@H](O)O[C@@H]2O[C@@]3(C)CC[C@H]4[C@H](C)CC[C@@H]1[C@@]24OO3 [Dihydroartemisinin]	2.11	1.23	0.215	> 100	2.99
CCOC(=O)c1c(CSc2ccccc2)n(C)c2cc(Br)c(O)c(CN(C)C)c12.Cl [Umifenovir]	6.28	> 100	0.791	3.7	3.37
CCc1nc(N)nc(N)c1-c1ccc(Cl)cc1 [Pyrimethamine]	30	> 100	0.324	100	3.56
CN1CCN(C(c2ccc(Cl)cc2)c2ccc(Cl)cc2)CC1 [1-[bis(4-chlorophenyl)methyl]-4-methyl-piperazine]	16.1	> 100	0.934	11.1	12.6
C=C[C@H](OC(C)=O)c1ccc(OC(C)=O)cc1 (racemic) [(±)-1'-Acetoxychavicol acetate]	1.96	> 100	0.778	> 100	1.32
C/C1=C/CC/C(C)=C/CC(C)(C)/C=C/C1=O [Zerumbone]	9.91	> 100	0.238	11.1	2.66
COc1ccccc1NC(=O)c1ccccc1Sc1ccc([N+](=O)[O-])cc1 [RN-18]	11.8	> 100	0.491	11.1	10
Fc1cc(F)c2c(c1)C1C=CCC1C(c1cccnc1)N2 (stereo not given) [Golgicide A]	2.32	> 100	0.317	3.7	1.37
